# Tests used:
# [1] = tested on: IL-4, IL-5, IL-13, eotaxin and IFN-γ in the BAL fluid; experiment: Cytokine and chemokine levels in BAL fluid (ELISA), OVA mouse asthma model; assay type: in vivo, BALB/c mice; conditions: OVA-challenged mice
# [2] = tested on: NF-κB signaling pathway in normal human bronchial epithelial cells; experiment: TNF-α-induced NF-κB activation in normal human bronchial epithelial cells (immunoblotting, TransAM p65 ELISA); assay type: cell-based; conditions: 30 μM
# Method: To determine the effects of andrograhpolide on OVA-specific immune responses in lymphocytes, thoracic lymph node cells were grown in bronchial epithelial bulletkit medium (Cambrex BioScience, Walkersvile, Md., USA), supplemented with bovine pituitary extract (2 ml), hydrocortisone (0.5 ml), recombinant human EGF (0.5 ml), epinephrine (0.5 ml), transferrin (0.5 ml), insulin (0.5 ml), retinoic acid (0.5 ml), triiodothyronine (0.5 ml), gentamycin sulfate (50 μg/ml), and amphotericin B (50 ng/ml). The cells were incubated in 5% CO2 incubator at 37° C., and subcultured at 80% to 85% confluency. Cells were exposed to 200 μg/ml OVA for 72 hours. Concanavalin A (Con A, 10 μug/ml) was used as a positive control. Supernatants from parallel triplicate cultures were analyzed for cytokine levels by ELISA. Normal human bronchial epithelial cells were cultured in optimized bronchial epithelial bulletkit medium with supplements (Lonza, Basel, Switzerland). Cells were pretreated with 30 μM andrographolide or vehicle (0.01% DMSO) 4 hours before stimulation with 10 ng/ml tumor necrosis factor (TNF)-α. Total and nuclear proteins, and mRNA were extracted from cells at specified time intervals.
# (§1) Lung and cell culture nuclear proteins ([…]) were isolated. Lysates were incubated on ice for 30 min before centrifugation (18,000 g for 5 min). The supernatants were collected, and protein concentrations were determined using a BCA protein assay kit. 28 μl of the protein measured were mixed with 7 μl 5× sample buffer and boiled at 95° C. for 5 min. 10% SDS-PAGE gel was set as known in the art. The gel was placed in a Trans-Blot tank (Bio-Rad Laboratories, Hercules, Calif.). 30 μl of the sample mixtures and Pre-stained SDS Page Marker (Bio-Rad Laboratories, Hercules, Calif.) were loaded into respective wells and ran at 100V for 2 hours. The proteins were then transferred to a PVDF membrane using a semi-dry transblotter (ATTO Corp, Tokyo, Japan). The PVDF membrane was blocked with 5% non-fat milk in Tween-20 Tris buffered saline (TTBS) for 2 hours and probed with various primary antibodies in 1% non-fat milk in TTBS (1:2,000 for anti-rabbit antibodies; 1:5,000 for anti-mouse antibodies; 1:10,000 for β-actin) overnight at 4° C. The PVDF was then washed with TTBS for 10 times (2-3 min each), and incubated in HRP- or AP-conjugated anti-mouse or anti-rabbit antibodies for 1 hour. The membrane was again washed with TTBS. For HRP-conjugated antibody, 1 ml each of HRP substrate 1 and substrate 2 were added onto the membrane. For AP-conjugated antibody, 7.5 ml of AP substrates (300 μl AP 25×Buffer, 75 μl Reagent A, 75 μl Reagent B, 7.5 ml water) was added per gel. The data was then developed in the dark on hyperfilms using an ECL reagent. Immunoblots were probed with anti-p65, anti-phospho-p65 (Ser536), and anti-TATA binding protein (TBP, Abcam, Cambridge, UK).
# (§2) Nuclear proteins were also analyzed for NF-κB DNA-binding activity using the TransAM p65 transcription factor assay kit (Active Motif, Carlsbad, Calif.).
# [3] = tested on: p65 NF-κB; experiment: p65 NF-κB nuclear translocation and DNA-binding in lung tissue nuclear extracts; assay type: in vivo, BALB/c mice; conditions: 1 mg/kg; 24 hours after last OVA aerosol; reduced to the basal levels
# Method: as §1, with “For HRP-conjugated antibody, 1 ml each of HRP substrate 1 and substrate 2 were added onto the membrane. For AP-conjugated antibody, 7.5 ml of AP substrates (300 μl AP 25×Buffer, 75 μl Reagent A, 75 μl Reagent B, 7.5 ml water) was added per gel. The data was then developed in the dark on hyperfilms using an ECL reagent. Immunoblots were probed with anti-p65, anti-phospho-p65 (Ser536), and anti-TATA binding protein (TBP, Abcam, Cambridge, UK).” left out
# as §2
# [4] = tested on: Nitric Oxide (NO); experiment: Serum nitrate nitrite level; assay type: in vivo, BALB/c mice; conditions: OVA-challenged mice
# [5] = 10 ng/ml TNF-α for 5, 15 and 30 minutes
SMILES,GM-CSF level in BAL fluid [1],TNF-α level in BAL fluid [1],"TNF-α-induced IκBα degradation [2, 5]","TNF-α-induced p65 subunit of NF-κB phosphorylation [2, 5]","TNF-α-induced phosphorylation of IKKβ [2, 5]",IκB phosphorylation ([2]; 10 ng/ml TNF-α),TNF-α-induced p65 DNA-binding activity ([2]; TNF-α for 30 minutes),TNF-α-induced p65 nuclear translocation ([2]; TNF-α for 30 minutes),TNF-α-induced p65 DNA-binding ([2]; 10 ng/ml TNF-α for 5 minutes),TNF-α-induced p65 nuclear translocation ([2]; 10 ng/ml TNF-α for 5 minutes),nuclear p65 DNA-binding activity in lung tissue nuclear extract [3],nuclear p65 amount in lung tissue nuclear extract [3],serum nitrate nitrite level [4]
C=C1CC[C@@H]2[C@](C)(CO)[C@H](O)CC[C@@]2(C)[C@@H]1C/C=C1/C(=O)OC[C@H]1O [Andrographolide],inhibited,inhibited,blocked,blocked,blocked,inhibition,blocked,blocked,–,–,–,–,–
"C=C1CCC2C(C)(CO)C(O)CCC2(C)C1C=CC1=CCOC1=O (stereo not shown) [DDAG, 14-Deoxy-11,12-didehydroandrographolide]",–,–,–,–,–,–,–,–,markedly abated,markedly abated,significantly (P<0.05) reduced,significantly (P<0.05) reduced,reduce

# From US20120015923A1, “USE OF ANDROGRAPHOLIDE COMPOUNDS FOR TREATING INFLAMMATION AND AIRWAY DISORDERS” (NATIONAL UNIVERSITY OF SINGAPORE, priority 2009, published 2012)
